# Experimental data as given in paper PMC7617869, “Molecular glues that inhibit deubiquitylase activity and inflammatory signaling” (Nature Structural & Molecular Biology, 2025).
# “And” between values parts separate entries of the source, which are not always exact repeats. Equal entries are not always repeated.
# Legend:
# trypsin = test: Trypsin IQF diubiquitin selectivity assay; assay type: biochemical; conditions: Fig. 1g, Trypsin
# Description: BRISC DUB activity was measured at room temperature using 1 nM BRISC and 500 nM IQF diubiquitin K63 substrate (LifeSensors, DU6303) in the presence of DMSO and compounds at 10 μM (final concentrations). Assays were performed in 384-well black flat-bottom low-flange plates (Corning, 35373) in buffer containing 50 mM HEPES–NaOH pH 7.0, 100 mM NaCl, 1 mg ml^−1 BSA, 1 mM DTT and 0.03% v/v Brij-35. Then, 10 μl of twofold concentrated enzyme stock was dispensed, followed by transfer of 200 nl of compounds (1 mM stock) using a 384-pin tool and a 15-min incubation at room temperature. Then, 10 μl of twofold concentrated substrate stock was added and the reaction was monitored by measuring fluorescence intensity (excitation, 540 nm; emission, 580 nm) after 20-min incubation at room temperature and ~50% of substrate was consumed. Orthogonal assays for verification of H20 and P12 hit compounds using USP2 (100 nM) and trypsin (125 nM) were performed in identical conditions.
# (§1) IQF assays were performed in DUB reaction buffer containing 50 mM HEPES–NaOH pH 7.0, 100 mM NaCl, 0.1 mg ml^−1 BSA, 1 mM DTT and 0.03% v/v Brij-35. […] The final concentration of BRISC WT, all BRISC mutants, HsBRISCΔLoop, MmBRISC and DrBRISCΔNΔC was 1 nM. Other enzymes were tested at the following concentrations: 5 nM ARISC (FL), 10 nM CfBRISCΔNΔC, 250 nM AMSH* (ref. [43]), 500 nM USP2 and 1 μM trypsin (Sigma, 9002-07-7). For Michaelis–Menten experiments, 1 nM BRISC with 0–1 μM IQF K63-linked diubiquitin substrate was used. Michaelis–Menten analyses and Lineweaver–Burk plots were calculated using GraphPad Prism (version 9.0).
# (§2) To assess enzymatic activity, BRISC complexes were diluted to concentrations between 1 nM and 50 nM. […] Then, 20-μl enzyme reactions were carried out in 384-well black flat-bottom low-flange plates (Corning, 35373). DUB activity was measured using IQF K63-linked diubiquitin (LifeSensors, DU6303) at 50 nM. Cleaved diubiquitin was monitored by measuring fluorescence intensity (excitation, 544 nm; emission, 575 nm; dichroic mirror, 560 nm). Fluorescence intensity was measured every minute for 30 min at 30 °C. Fluorescence intensity units were plotted against time to generate a linear reaction progress curve, where the initial velocity (V0) corresponds to the gradient of the curve (typically achieved within 15 min). IC50 values were calculated using the GraphPad Prism (version 9.0) built-in dose–response equation for inhibitor concentration versus response (variable slope).
# [1] = tested on: ISG expression in MCF10A Cas9 cells expressing BRCC45 R137A; test: MCF10A BRCC45 R137A ISG expression (RT–qPCR); assay type: cell-based, human; conditions: hIFNα2 75 ng/ml, 2.5 μM, 4 h
# BRISC (FL) = target: T1, BRISC (FL) (Homo sapiens, UniProt P46736+Q15018+Q9NXR7); test: Native MS of BRISC with inhibitor; conditions: 10 μM BRISC, 1 mM inhibitor
# T1 construct: full-length BRISC (FL), ARISC (FL); made in house; host or cells: Spodoptera frugiperda Sf9 insect cells (MultiBac)
# Description: Samples were buffer-exchanged into 500 mM ammonium acetate using Zeba Spin (7-kDa molecular weight cutoff) desalting columns (Thermo Fisher Scientific). Samples were analyzed by nanoelectrospray ionization MS using a quadrupole orbitrap MS (Q-Exactive UHMR, Thermo Fisher Scientific) using gold–palladium-coated nanospray tips prepared in-house. The MS instrument was operated in positive ion mode using a capillary voltage of 1.5 kV, capillary temperature of 250 °C and S-lens radiofrequency of 200 V. In-source trapping was used with a desolvation voltage of −200 V for 4 μs. Extended trapping was not used. The quadrupole mass range was 2,000–15,000 m/z. Nitrogen gas was used in the higher-energy collisional dissociation cell with a trap gas pressure setting of 5. Orbitrap resolution was 6,250 and detector m/z optimization was low. Five microscans were averaged and an automatic gain control target of 2 × 10^5 was used. Mass calibration was performed by a separate injection of sodium iodide at a concentration of 2 μg μl^−1. Data processing was performed using QualBrowser (version 4.2.28.14) and deconvoluted using UniDec[82].
# BRCC36–Abraxas 2 complex = target: T2, BRCC36–Abraxas 2 complex (Homo sapiens, UniProt P46736+Q15018); test: BRCC36–Abraxas 2 IQF DUB activity assay; assay type: biochemical; conditions: for Normalised V0: Fig. 1g, HsBRCC36-Abraxas2
# T2 construct: made in house; host or cells: Spodoptera frugiperda (Sf9) insect cells, MultiBac
# Description: as §1, §2
compound,measurement,setting,value
O=C(NC1C2CNCC21)c1nn(C(=O)c2c(Cl)cccc2Cl)cc1NC(=O)c1c(Cl)cccc1Cl (stereo not shown) [FX-171-C],Normalised V0,trypsin; FX-171-C 0.02 μM,0.9754 and 1.082 and 1.037
same,Normalised V0,trypsin; FX-171-C 0.0399999 μM,0.8958 and 1.072 and 0.9551
same,Normalised V0,trypsin; FX-171-C 0.0599997 μM,0.994 and 1.174 and 1.005
same,Normalised V0,trypsin; FX-171-C 0.0799994 μM,0.9908 and 1.085 and 0.9856
same,Normalised V0,trypsin; FX-171-C 0.119998 μM,0.909 and 1.102 and 1.137
same,Normalised V0,trypsin; FX-171-C 0.199996 μM,1.048 and 1.0751 and 0.9569
same,Normalised V0,trypsin; FX-171-C 0.499975 μM,0.9677 and 1.122 and 0.9918
same,Normalised V0,trypsin; FX-171-C 0.799936 μM,0.9633 and 1.093 and 0.8806
same,Normalised V0,trypsin; FX-171-C 1.25984 μM,1.083 and 0.9949 and 1.069
same,Normalised V0,trypsin; FX-171-C 1.9996 μM,1.032 and 1.136 and 0.9684
same,Normalised V0,trypsin; FX-171-C 3.159 μM,0.959 and 1.075 and 1.119
same,Normalised V0,trypsin; FX-171-C 5.19739 μM,1.013 and 1.118 and 1.082
same,Normalised V0,trypsin; FX-171-C 7.99364 μM,1.036 and 1.142 and 1.053
same,Normalised V0,trypsin; FX-171-C 12.7839 μM,1.107 and 1.095 and 0.9652
same,Normalised V0,trypsin; FX-171-C 19.96 μM,0.9382 and 0.9859 and 0.9654
same,Normalised V0,trypsin; FX-171-C 31.4999 μM,0.9264 and 1.08 and 0.8456
same,Normalised V0,trypsin; FX-171-C 50.147 μM,0.8123 and 0.9453 and 0.8818
same,Normalised V0,trypsin; FX-171-C 79.7601 μM,0.7444 and 0.9554 and 0.7546
same,Normalised V0,trypsin; FX-171-C 125.99 μM,0.6817 and 0.8207 and 0.6739
same,Normalised V0,trypsin; FX-171-C 199.922 μM,0.4322 and 0.4467 and 0.4966
same,"ISG expression (ISG15, IFIT1, IFIT2, IFITM1, CXCL10)",[1],a reduction in ISG expression was not observed
same,BRISC dimers detected by native MS,BRISC (FL),BRISC dimers with 4:4:4:4 stoichiometry were detected
same,Normalised V0,BRCC36–Abraxas 2 complex; FX-171-C 0.02 μM,1.3 and 1.008 and 1.02
same,Normalised V0,BRCC36–Abraxas 2 complex; FX-171-C 0.0399999 μM,1.022 and 1.101 and 0.829
same,Normalised V0,BRCC36–Abraxas 2 complex; FX-171-C 0.0599997 μM,1.02 and 1.119 and 0.8587
same,Normalised V0,BRCC36–Abraxas 2 complex; FX-171-C 0.0799994 μM,1.3 and 1.0735 and 0.9036
same,Normalised V0,BRCC36–Abraxas 2 complex; FX-171-C 0.119998 μM,1.089 and 1.054 and 0.9805
same,Normalised V0,BRCC36–Abraxas 2 complex; FX-171-C 0.199996 μM,1.086 and 0.9378 and 0.7276
same,Normalised V0,BRCC36–Abraxas 2 complex; FX-171-C 0.499975 μM,1.276 and 0.8855 and 0.9134
same,Normalised V0,BRCC36–Abraxas 2 complex; FX-171-C 0.799936 μM,1.016 and 0.9326 and 0.9281
same,Normalised V0,BRCC36–Abraxas 2 complex; FX-171-C 1.25984 μM,1.192 and 1.006 and 0.8037
same,Normalised V0,BRCC36–Abraxas 2 complex; FX-171-C 1.9996 μM,1.057 and 0.8883 and 0.8901
same,Normalised V0,BRCC36–Abraxas 2 complex; FX-171-C 3.159 μM,1.054 and 1.032 and 0.8522
same,Normalised V0,BRCC36–Abraxas 2 complex; FX-171-C 5.19739 μM,1.053 and 0.9454 and 1.03
same,Normalised V0,BRCC36–Abraxas 2 complex; FX-171-C 7.99364 μM,1.141 and 1 and 1.012
same,Normalised V0,BRCC36–Abraxas 2 complex; FX-171-C 12.7839 μM,1.078 and 0.9313 and 0.7823
same,Normalised V0,BRCC36–Abraxas 2 complex; FX-171-C 19.96 μM,1.034 and 1.063 and 0.8934
same,Normalised V0,BRCC36–Abraxas 2 complex; FX-171-C 31.4999 μM,1.1494 and 0.9768 and 0.8462
same,Normalised V0,BRCC36–Abraxas 2 complex; FX-171-C 50.147 μM,1.218 and 1.114 and 0.9054
same,Normalised V0,BRCC36–Abraxas 2 complex; FX-171-C 79.7601 μM,1.112 and 1.275 and 1.169
same,Normalised V0,BRCC36–Abraxas 2 complex; FX-171-C 125.99 μM,1.275 and 1.029 and 0.9009
same,Normalised V0,BRCC36–Abraxas 2 complex; FX-171-C 199.922 μM,1.127 and 0.8107 and 0.6392
same,inhibition of BRCC36–Abraxas 2 complex,BRCC36–Abraxas 2 complex; minimally active complex,did not inhibit
